Results: patent publication US20080045592A1, “Method of inhibiting growth and proliferation of listeria monocytogenes using levulinate” (Utah State University, priority 2006, published 2008)
Where two headings read alike, the source gives them in different places.

Assays:
[1] = tested on: 5 strain cocktail of L. monocytogenes; conditions: for inhibiting growth of L. monocytogenes, compared with sodium lactate alone or sodium lactate combined with sodium diacetate: 2° C., comparators at 2%; for growth of L. monocytogenes: entire 12 weeks of storage at 2° C.
[2] = tested on: 5 strain cocktail of L. monocytogenes; conditions: for inhibition of growth of L. monocytogenes, compared with sodium lactate alone or sodium lactate combined with sodium diacetate: 2° C., comparators at 2%; for growth of L. monocytogenes: entire 12 weeks of storage at 2° C.
[3] = tested on: cocktail of 5 pathogenic strains of L. monocytogenes; conditions: bologna slices surface contacted with 1 to 3% solutions, stored at 4° C. for 16 weeks
Description: This experiment tests the residual anti-Listeria activity imparted by topical application of levulinate to ready-to-eat meat product. In this experiment, levulinic acid is topically applied to a ready-to-eat meat product, and residual anti-Listeria activity followed in a post-treatment challenge. Briefly, bologna slices are surface contacted (spray, wash, or dips) with solutions of 1 to 3% levulinic […] acid. The slices are inoculated with a cocktail of 5 pathogenic strains of L. monocytogenes. Samples are vacuum packaged and stored at 4° C. for 16 weeks. Pathogen counts are determined at 0, 2, 4, 8, 12 and 16 weeks.

[4] = tested on: pathogenic bacteria including, but not limited to, Listeria monocytogenes; conditions: 2% applied at 54° C. to carcass tissue, stored at 4° C. for 12 hours
Description: This experiment tests the extent of decontamination achieved by topical application of levulinic acid to carcass meats as compared to lactic and acetic acids. Briefly, carcass tissues samples from beef, pork, lamb, and poultry (or any other species) are inoculated with pathogenic bacteria including, but not limited to, Listeria monocytogenes. Levulinic acid (2%), lactic acid (2%), and acetic acid (2%) are independently applied at 54° C. to individual meat samples by washing, dipping, or spraying. Samples are vacuum packaged and stored at 4° C. for 12 hours, and pathogen counts are determined.

[5] = tested on: pathogenic bacteria (including, but not limited to Listeria monocytogenes); conditions: 2% applied at 54° C. to carcass tissues, stored 4 to 8° C. for 16 weeks
Description: This experiment tests the extent of residual anti-pathogenic activity of levulinic acid (2%) topically applied to carcasses by dipping, spraying, or washing as compared to lactic acid (2%) or acetic acid (2%). Briefly, levulinic acid, lactic acid and acetic acid are independently applied at 54° C. to samples of carcass tissues from beef, pork, lamb, and poultry (or any other species) by topical application. Samples are inoculated with pathogenic bacteria (including, but not limited to Listeria monocytogenes), vacuum packaged, and stored (4 to 8° C.) for 16 weeks. Pathogen counts are determined at 0, 2, 4, 8, 12, and 16 weeks.

[6] = tested on: pathogenic bacteria (including, but not limited to, Listeria monocytogenes); conditions: 0.5, 1.0, 2.0% applied at temperatures greater than 54° C. (68, 77° C.); comparators 2% at 54° C.
Description: Samples are vacuum packaged and stored at 4° C. for 12 hours, and pathogen counts are determined.

[7] = tested on: pathogenic bacteria (including, but not limited to, Listeria monocytogene); conditions: addition or application to any food, stored at 4 to 8° C. for up to 16 weeks
Description: Pathogen counts are determined at 0, 2, 4, 8, 12, and 16 weeks.

Compound: CC(=O)CCC(=O)O [levulinate]
- peak levels of growth of L. monocytogenes ([1]; 1% in turkey product, after 12 weeks of storage at 2° C.): greatly inhibited
- growth of L. monocytogenes compared to the control ([1]; 1% in turkey product, vacuum packaged, stored at 2° C., two trials averaged): delayed growth

Compound: CC(=O)CCC(=O)[O-].[Na+] [sodium levulinate]
- inhibiting growth of L. monocytogenes, compared with sodium lactate alone or sodium lactate combined with sodium diacetate ([1]; 2% in turkey product): more effective
- growth of L. monocytogenes ([1]; 2% in turkey product): completely inhibited growth
- inhibiting growth of L. monocytogenes, compared with sodium lactate alone or sodium lactate combined with sodium diacetate ([1]; 3% in turkey product): more effective
- growth of L. monocytogenes ([1]; 3% in turkey product): completely inhibited growth
- inhibition of growth of L. monocytogenes, compared with sodium lactate alone or sodium lactate combined with sodium diacetate ([2]; 1% in bologna): as inhibitory
- growth of L. monocytogenes ([2]; 1% in bologna): completely inhibited growth
- inhibition of growth of L. monocytogenes, compared with sodium lactate alone or sodium lactate combined with sodium diacetate ([2]; 2% in bologna): as inhibitory
- growth of L. monocytogenes ([2]; 2% in bologna): completely inhibited growth
- inhibition of growth of L. monocytogenes, compared with sodium lactate alone or sodium lactate combined with sodium diacetate ([2]; 3% in bologna): as inhibitory
- growth of L. monocytogenes ([2]; 3% in bologna): completely inhibited growth

Compound: CC(=O)CCC(=O)O [levulinic acid, 4-oxopentanoic acid]
- proliferation of Listeria bacteria in treated meat samples [3]: significant decrease
- decontamination of pathogens as compared to lactic acid and acetic acid [4]: equal or greater decontamination
- residual anti-pathogenic activity as compared to lactic acid and acetic acid [5]: equal or greater residual anti-pathogenic activity
- initial surface decontamination activity against pathogenic bacteria as compared to fixed concentrations of lactic acid or acetic acid at a fixed temperature [6]: significant initial surface decontamination activity
- initial decontamination and residual activity against pathogenic bacteria [7]: significant initial decontamination and residual activity
